Values after ≈ are worked out from the molar mass of the structure shown.
Legend:
Assay type in all cases: functional
Shigella flexneri [1] = assay: Antibacterial activity against Shigella flexneri after 24 hr by agar streak dilution method
Proteus vulgaris [2] = assay: Antibacterial activity against Proteus vulgaris after 24 hr by agar streak dilution method
Salmonella typhi [3] = assay: Antibacterial activity against Salmonella enterica subsp. enterica serovar Typhi after 24 hr by agar streak dilution method
Klebsiella pneumoniae [4] = assay: Antibacterial activity against Klebsiella pneumoniae after 24 hr by agar streak dilution method
Candida albicans [5] = assay: Antifungal activity against Candida albicans at 100 ug/disk after 48 hr by paper disk diffusion method; settings: read-out: IZ
Aspergillus clavatus [6] = assay: Antifungal activity against Aspergillus clavatus at 100 ug/disc after 48 hr by paper disk diffusion method; settings: read-out: IZ
Aspergillus fumigatus [7] = assay: Antifungal activity against Aspergillus fumigatus at 100 ug/disc after 48 hr by paper disk diffusion method; settings: read-out: IZ
Aspergillus niger [8] = assay: Antifungal activity against Aspergillus niger at 100 ug/disk after 48 hr by paper disk diffusion method; settings: read-out: IZ
Candida albicans [9] = assay: Antifungal activity against Candida albicans after 48 hr by agar streak dilution method
Aspergillus clavatus [10] = assay: Antifungal activity against Aspergillus clavatus after 48 hr by agar streak dilution method
Aspergillus niger [11] = assay: Antifungal activity against Aspergillus niger after 48 hr by agar streak dilution method
Pseudomonas aeruginosa [12] = assay: Antibacterial activity against Pseudomonas aeruginosa after 24 hr by agar streak dilution method
Escherichia coli [13] = assay: Antibacterial activity against Escherichia coli after 24 hr by agar streak dilution method
Shigella flexneri [14] = assay: Antibacterial activity against Shigella flexneri at 100 ug/disc after 24 hr by paper disk diffusion method; settings: read-out: IZ
Proteus vulgaris [15] = assay: Antibacterial activity against Proteus vulgaris at 100 ug/disk after 24 hr by paper disk diffusion method; settings: read-out: IZ
Salmonella typhi [16] = assay: Antibacterial activity against Salmonella enterica subsp. enterica serovar Typhi at 100 ug/disk after 24 hr by paper disk diffusion method; settings: read-out: IZ
Klebsiella pneumoniae [17] = assay: Antibacterial activity against Klebsiella pneumoniae at 100 ug/disk after 24 hr by paper disk diffusion method; settings: read-out: IZ
Pseudomonas aeruginosa [18] = assay: Antibacterial activity against Pseudomonas aeruginosa at 100 ug/disk after 24 hr by paper disk diffusion method; settings: read-out: IZ
Escherichia coli [19] = assay: Antibacterial activity against Escherichia coli at 100 ug/disk after 24 hr by paper disk diffusion method; settings: read-out: IZ
Bacillus subtilis [20] = assay: Antibacterial activity against Bacillus subtilis after 24 hr by agar streak dilution method
Staphylococcus aureus [21] = assay: Antibacterial activity against Staphylococcus aureus after 24 hr by agar streak dilution method
Bacillus subtilis [22] = assay: Antibacterial activity against Bacillus subtilis at 100 ug/disk after 24 hr by paper disk diffusion method; settings: read-out: IZ
Staphylococcus aureus [23] = assay: Antibacterial activity against Staphylococcus aureus at 100 ug/disc after 24 hr by paper disk diffusion method; settings: read-out: IZ
Aspergillus fumigatus [24] = assay: Antifungal activity against Aspergillus fumigatus after 48 hr by agar streak dilution method

| Compound | MIC (Shigella flexneri [1]) [µg/mL] | MIC (Proteus vulgaris [2]) [µg/mL] | MIC (Salmonella typhi [3]) [µg/mL] | MIC (Klebsiella pneumoniae [4]) [µg/mL] | zone of inhibition at 100 µg/disc (Candida albicans [5]) [mm] | zone of inhibition at 100 µg/disc (Aspergillus clavatus [6]) [mm] | zone of inhibition at 100 µg/disc (Aspergillus fumigatus [7]) [mm] | zone of inhibition at 100 µg/disc (Aspergillus niger [8]) [mm] | MIC (Candida albicans [9]) [µg/mL] | MIC (Aspergillus clavatus [10]) [µg/mL] | MIC (Aspergillus niger [11]) [µg/mL] | MIC (Pseudomonas aeruginosa [12]) [µg/mL] | MIC (Escherichia coli [13]) [µg/mL] | zone of inhibition at 100 µg/disc (Shigella flexneri [14]) [mm] | zone of inhibition at 100 µg/disc (Proteus vulgaris [15]) [mm] | zone of inhibition at 100 µg/disc (Salmonella typhi [16]) [mm] | zone of inhibition at 100 µg/disc (Klebsiella pneumoniae [17]) [mm] | zone of inhibition at 100 µg/disc (Pseudomonas aeruginosa [18]) [mm] | zone of inhibition at 100 µg/disc (Escherichia coli [19]) [mm] | MIC (Bacillus subtilis [20]) [µg/mL] | also measured |
| --- | --- | --- | --- | --- | --- | --- | --- | --- | --- | --- | --- | --- | --- | --- | --- | --- | --- | --- | --- | --- | --- |
| Cc1cc(=O)oc2cc(Oc3nc(Nc4ccc(N5C(=O)C(CN6CCN(c7ccccn7)CC6)SC5c5ccccc5Br)cc4)nc(N(C)C)n3)ccc12 (stereo not drawn) | 100 (≈ 122 µM) | 50 (≈ 60.9 µM) | 100 (≈ 122 µM) | 50 (≈ 60.9 µM) | 25 | 23 | 27 | 25 | 12.5 (≈ 15.2 µM) | 12.5 (≈ 15.2 µM) | 25 (≈ 30.5 µM) | 25 (≈ 30.5 µM) | 50 (≈ 60.9 µM) | 15 | 19 | 14 | 17 | 22 | 20 | 25 (≈ 30.5 µM) | MIC (Staphylococcus aureus [21]): 50 µg/mL (≈ 60.9 µM); zone of inhibition at 100 µg/disc (Bacillus subtilis [22]): 22 mm; zone of inhibition at 100 µg/disc (Staphylococcus aureus [23]): 20 mm; MIC (Aspergillus fumigatus [24]): 6.25 µg/mL (≈ 7.61 µM) |
| COc1ccc(C2SC(CN3CCN(c4ccccn4)CC3)C(=O)N2c2ccc(Nc3nc(Oc4ccc5c(C)cc(=O)oc5c4)nc(N(C)C)n3)cc2)cc1 (stereo not drawn) | 100 (≈ 130 µM) | 50 (≈ 64.8 µM) | 25 (≈ 32.4 µM) | 50 (≈ 64.8 µM) | 23 | 19 | 20 | 22 | 25 (≈ 32.4 µM) | 50 (≈ 64.8 µM) | 25 (≈ 32.4 µM) | 100 (≈ 130 µM) | 100 (≈ 130 µM) | 17 | 20 | 22 | 19 | 18 | 16 | 25 (≈ 32.4 µM) | MIC (Staphylococcus aureus [21]): 25 µg/mL (≈ 32.4 µM); zone of inhibition at 100 µg/disc (Bacillus subtilis [22]): 19 mm; zone of inhibition at 100 µg/disc (Staphylococcus aureus [23]): 21 mm; MIC (Aspergillus fumigatus [24]): 25 µg/mL (≈ 32.4 µM) |
| Cc1cc(=O)oc2cc(Oc3nc(Nc4ccc(N5C(=O)C(CN6CCN(c7ccccn7)CC6)SC5c5ccc(Cl)c(Cl)c5)cc4)nc(N(C)C)n3)ccc12 (stereo not drawn) | 50 (≈ 61.7 µM) | 25 (≈ 30.8 µM) | 50 (≈ 61.7 µM) | 50 (≈ 61.7 µM) | 17 | 20 | 18 | 16 | 100 (≈ 123 µM) | 50 (≈ 61.7 µM) | 100 (≈ 123 µM) | 25 (≈ 30.8 µM) | 50 (≈ 61.7 µM) | 19 | 20 | 20 | 19 | 21 | 18 | 25 (≈ 30.8 µM) | MIC (Staphylococcus aureus [21]): 50 µg/mL (≈ 61.7 µM); zone of inhibition at 100 µg/disc (Bacillus subtilis [22]): 21 mm; zone of inhibition at 100 µg/disc (Staphylococcus aureus [23]): 19 mm; MIC (Aspergillus fumigatus [24]): 50 µg/mL (≈ 61.7 µM) |
| Cc1cc(=O)oc2cc(Oc3nc(Nc4ccc(N5C(=O)C(CN6CCN(c7ccccn7)CC6)SC5c5cccc(F)c5)cc4)nc(N(C)C)n3)ccc12 (stereo not drawn) | 12.5 (≈ 16.5 µM) | 50 (≈ 65.8 µM) | 25 (≈ 32.9 µM) | 50 (≈ 65.8 µM) | 21 | 25 | 19 | 23 | 12.5 (≈ 16.5 µM) | 12.5 (≈ 16.5 µM) | 12.5 (≈ 16.5 µM) | 25 (≈ 32.9 µM) | 6.25 (≈ 8.23 µM) | 25 | 21 | 23 | 20 | 21 | 28 | 12.5 (≈ 16.5 µM) | MIC (Staphylococcus aureus [21]): 25 µg/mL (≈ 32.9 µM); zone of inhibition at 100 µg/disc (Bacillus subtilis [22]): 21 mm; zone of inhibition at 100 µg/disc (Staphylococcus aureus [23]): 19 mm; MIC (Aspergillus fumigatus [24]): 25 µg/mL (≈ 32.9 µM) |
| Cc1cc(=O)oc2cc(Oc3nc(Nc4ccc(N5C(=O)CSC5c5ccc([N+](=O)[O-])cc5)cc4)nc(N(C)C)n3)ccc12 (stereo not drawn) | 100 (≈ 163 µM) | 100 (≈ 163 µM) | 100 (≈ 163 µM) | 100 (≈ 163 µM) | < 10 | 17 | 13 | 12 | 100 (≈ 163 µM) | 100 (≈ 163 µM) | 100 (≈ 163 µM) | 100 (≈ 163 µM) | 100 (≈ 163 µM) | 11 | < 10 | 16 | 12 | 11 | 13 | 100 (≈ 163 µM) | MIC (Staphylococcus aureus [21]): 100 µg/mL (≈ 163 µM); zone of inhibition at 100 µg/disc (Bacillus subtilis [22]): 11 mm; zone of inhibition at 100 µg/disc (Staphylococcus aureus [23]): 13 mm; MIC (Aspergillus fumigatus [24]): 100 µg/mL (≈ 163 µM) |
| Cc1cc(=O)oc2cc(Oc3nc(Nc4ccc(N5C(=O)C(CN6CCN(c7ccccn7)CC6)SC5c5ccccc5C(=O)O)cc4)nc(N(C)C)n3)ccc12 (stereo not drawn) | 100 (≈ 127 µM) | 100 (≈ 127 µM) | 100 (≈ 127 µM) | 100 (≈ 127 µM) | < 10 | 15 | 13 | 15 | 100 (≈ 127 µM) | 100 (≈ 127 µM) | 100 (≈ 127 µM) | 50 (≈ 63.6 µM) | 100 (≈ 127 µM) | 17 | 15 | 11 | 15 | 18 | 13 | 50 (≈ 63.6 µM) | MIC (Staphylococcus aureus [21]): 50 µg/mL (≈ 63.6 µM); zone of inhibition at 100 µg/disc (Bacillus subtilis [22]): 17 mm; zone of inhibition at 100 µg/disc (Staphylococcus aureus [23]): 19 mm; MIC (Aspergillus fumigatus [24]): 100 µg/mL (≈ 127 µM) |
| Cc1cc(=O)oc2cc(Oc3nc(Nc4ccc(/N=C/c5ccc(O)cc5O)cc4)nc(N(C)C)n3)ccc12 | 100 (≈ 191 µM) | 50 (≈ 95.3 µM) | 50 (≈ 95.3 µM) | 50 (≈ 95.3 µM) | 20 | 15 | 18 | 14 | 25 (≈ 47.7 µM) | 100 (≈ 191 µM) | 100 (≈ 191 µM) | 50 (≈ 95.3 µM) | 25 (≈ 47.7 µM) | 18 | 17 | 18 | 19 | 17 | 18 | 25 (≈ 47.7 µM) | MIC (Staphylococcus aureus [21]): 12.5 µg/mL (≈ 23.8 µM); zone of inhibition at 100 µg/disc (Bacillus subtilis [22]): 18 mm; zone of inhibition at 100 µg/disc (Staphylococcus aureus [23]): 20 mm; MIC (Aspergillus fumigatus [24]): 25 µg/mL (≈ 47.7 µM) |
